In patent publication US6369225B1, “Compounds having activity as inhibitors of cytochrome P450RAI” (Allergan Sales, Inc., priority 2000, dated 2002) one finds IC50 and Kd data, which are given here for 16 molecules.

For one assay, the target named is T1, P450RAI-1 (Homo sapiens, UniProt O43174).
T1 construct: expressed in transfected cells; host or cells: HeLa cells, stably transfected, hygromycin selection
T1 sequence (O43174 1-497): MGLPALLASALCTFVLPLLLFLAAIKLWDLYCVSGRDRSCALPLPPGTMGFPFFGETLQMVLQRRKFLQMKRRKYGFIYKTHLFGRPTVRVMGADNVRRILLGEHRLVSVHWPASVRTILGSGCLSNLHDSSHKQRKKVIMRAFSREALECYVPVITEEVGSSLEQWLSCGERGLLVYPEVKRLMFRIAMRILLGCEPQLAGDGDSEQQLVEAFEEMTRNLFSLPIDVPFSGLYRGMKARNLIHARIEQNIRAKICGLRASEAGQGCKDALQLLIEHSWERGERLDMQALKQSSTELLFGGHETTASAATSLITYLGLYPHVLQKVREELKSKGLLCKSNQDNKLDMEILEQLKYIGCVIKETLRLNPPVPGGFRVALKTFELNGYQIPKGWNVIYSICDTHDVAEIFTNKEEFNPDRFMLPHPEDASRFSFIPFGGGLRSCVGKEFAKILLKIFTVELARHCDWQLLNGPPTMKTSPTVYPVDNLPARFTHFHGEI
Briefly: P450RAI-1 cell-based inhibitor assay. The note with it: P450RAI-1 stably transfected HeLa cells, [3H]-RA metabolism, 3 hours at 37° C.; read-out: P450RAI INHIBITION DATA INTACT HELA IC50. As for the experimental part:
P450RAI-1 stably transfected HeLa cells are maintained in […] tissue culture dishes in Modified Eagle's Medium (MEM) containing 10% Fetal Bovine Serum (FBS) and 100 μg/ml hygromycin. Exponentially growing cells are harvested by incubating in trypsin. Cells are then washed with 1× Phosphate Buffered Saline (PBS) and plated in a 48-well plate at 5×10^5 cells in 0.2 ml MEM medium containing 10% FBS and 0.05 μCi[^3H]-RA in the presence or absence of increasing concentrations of the test compounds. The compounds are diluted in 100% DMSO and then added in triplicate wells at either 10, 1 or 0.1 μM final concentration. As a positive control for RA metabolism inhibition, cells are also incubated with ketoconazole at 100, 10 and 1 μM. Cell are incubated for 3 hours at 37° C. […] The water soluble radioactivity is quantified using a β-scintillation counter. IC50 values represent the concentration of inhibitor required to inhibit all-trans-RA metabolism by 50 percent and are derived manually from log-transformed data.

The target in the next assay is T2, RARα (Homo sapiens, UniProt P10276).
T2 sequence (P10276 1-462): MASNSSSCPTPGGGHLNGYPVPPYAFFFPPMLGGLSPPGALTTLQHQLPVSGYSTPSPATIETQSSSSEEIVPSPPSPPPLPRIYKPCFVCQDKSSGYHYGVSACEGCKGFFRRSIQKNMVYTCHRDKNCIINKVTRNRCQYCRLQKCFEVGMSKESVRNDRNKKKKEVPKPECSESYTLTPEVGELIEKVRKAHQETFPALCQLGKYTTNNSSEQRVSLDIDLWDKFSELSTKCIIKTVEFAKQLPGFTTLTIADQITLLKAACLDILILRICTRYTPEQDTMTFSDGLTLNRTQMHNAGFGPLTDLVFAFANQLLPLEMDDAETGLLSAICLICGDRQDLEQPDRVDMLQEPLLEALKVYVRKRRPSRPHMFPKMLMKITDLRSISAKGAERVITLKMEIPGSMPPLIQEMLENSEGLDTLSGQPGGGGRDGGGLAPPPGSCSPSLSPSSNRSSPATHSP
The assay can be described thus: ligand binding assay, RARα. The note with it: Kd line of EC50/(EFFICACY)/Kd, read-out: RAR Kd α. From the text:
(§1) Assays described below measure the ability of a compound to bind to, and/or activate various retinoid receptor subtypes. When in these assays a compound binds to a given receptor subtype and activates the transcription of a reporter gene through that subtype, then the compound is considered an agonist of that receptor subtype. […] In the below described assays the ability of the compounds to bind to RARα, RARβ, RARγ, RXRα, RXRβ and RXRγ receptors, and the ability or inability of the compounds to activate transcription of a reporter gene through these receptor subtypes can be tested.
(§2) A holoreceptor transactivation assay and a ligand binding assay which measure the antagonist/agonist like activity of the compounds of the invention, or their ability to bind to the several retinoid receptor subtypes, respectively, are described in published PCT Application No. WO WO93/11755 (particularly on pages 30-33 and 37-41) published on Jun. 24, 1993, the specification of which is also incorporated herein by reference. A detailed experimental procedure for holoreceptor transactivations has been described by Heyman et al. Cell 68, 397-406, (1992); Allegretto et al. J. Biol. Chem. 268, 26625-26633, and Mangelsdorf et al. The Retinoids: Biology, Chemistry and Medicine, pp 319-349, Raven Press Ltd., New York, which are expressly incorporated herein by reference. The results obtained in this assay are expressed in EC50 numbers, as they are also in the chimeric receptor transactivation assay. The results of ligand binding assay are expressed in Kd numbers. (See Cheng et al. Biochemical Pharmacology Vol. 22 pp 3099-3108, expressly incorporated herein by reference.)
(§3) The results if the ligand binding assay for several preferred compounds of the invention are included in Table 1.

In the next assay the target is T3, RARγ (Homo sapiens, UniProt P13631).
T3 sequence (P13631 1-454): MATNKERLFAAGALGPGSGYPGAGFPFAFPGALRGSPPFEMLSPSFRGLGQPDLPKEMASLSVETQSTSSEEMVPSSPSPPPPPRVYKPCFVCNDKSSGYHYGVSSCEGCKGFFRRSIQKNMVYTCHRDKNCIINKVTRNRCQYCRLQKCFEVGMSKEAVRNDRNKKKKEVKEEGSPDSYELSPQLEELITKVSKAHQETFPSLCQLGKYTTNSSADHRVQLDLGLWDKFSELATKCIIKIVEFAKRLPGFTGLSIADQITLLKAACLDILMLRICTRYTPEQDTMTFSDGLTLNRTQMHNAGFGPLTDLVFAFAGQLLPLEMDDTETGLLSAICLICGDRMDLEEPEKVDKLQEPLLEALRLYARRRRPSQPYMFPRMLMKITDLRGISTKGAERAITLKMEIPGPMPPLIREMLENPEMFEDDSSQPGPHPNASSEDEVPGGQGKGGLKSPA
The assay can be described thus: ligand binding assay, RARγ. Particulars: Kd line of EC50/(EFFICACY)/Kd, read-out: RAR Kd γ.
Excerpt: as §1, §2, §3

The target in a further assay is T4, RARβ (Homo sapiens, UniProt P10826).
T4 sequence (P10826 1-455): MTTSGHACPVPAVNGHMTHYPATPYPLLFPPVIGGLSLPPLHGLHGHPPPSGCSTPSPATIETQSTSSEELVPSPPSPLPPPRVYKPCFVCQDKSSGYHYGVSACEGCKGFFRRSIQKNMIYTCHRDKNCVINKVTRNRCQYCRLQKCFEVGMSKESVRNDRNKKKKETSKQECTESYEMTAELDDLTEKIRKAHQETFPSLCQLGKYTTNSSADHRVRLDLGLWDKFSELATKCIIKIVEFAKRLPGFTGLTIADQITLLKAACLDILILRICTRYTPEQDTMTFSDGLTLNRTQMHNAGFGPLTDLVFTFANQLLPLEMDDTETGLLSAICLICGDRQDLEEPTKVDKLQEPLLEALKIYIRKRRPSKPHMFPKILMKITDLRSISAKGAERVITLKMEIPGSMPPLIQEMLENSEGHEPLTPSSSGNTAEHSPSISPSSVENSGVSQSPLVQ
The assay can be described thus: ligand binding assay, RARβ. Particulars: Kd line of EC50/(EFFICACY)/Kd, read-out: RAR Kd β.
Excerpt: as §1
as §2, with “A detailed experimental procedure for holoreceptor transactivations has been described by Heyman et al. Cell 68, 397-406, (1992); Allegretto et al. J. Biol. Chem. 268, 26625-26633, and Mangelsdorf et al. The Retinoids: Biology, Chemistry and Medicine, pp 319-349, Raven Press Ltd., New York, which are expressly incorporated herein by reference.” left out

Structures are written as SMILES.

Take `CCN(Cc1ccc(C#Cc2ccc(C(=O)O)cc2)cc1C(C)C)C1CC1` [Compound 134, 4-{4-[(Cyclopropyl-ethyl-amino)-methyl]-3-isopropyly-phenylethynyl}-benzoic Acid]: at P450RAI-1, the IC50 turned out to be 5 µM.
`Cc1cc(C#Cc2ccc(CC(=O)O)cc2)ccc1C1(OC(C)C)CC1` [Compound 86, {4-[4-(1-Isopropoxycyclopropyl)-3-methyl-phenylethynyl]-phenyl}-acetic Acid]: the IC50 on P450RAI-1 worked out at 1.4 µM. The Kd at RARα, on RARγ and on RARβ was above 10 µM each time.
`CC1(C)CCC(=O)c2ccc(C(=O)Oc3ccc(CC(=O)O)cc3)cc21` [Compound 20, 8,8-Dimethyl-5-oxo-5,6,7,8-tetrahydro-naphthalene-2-carboxylic Acid-4-(carboxymethyl)phenyl Ester]: on P450RAI-1, the IC50 was above 10 µM.
On the same count and under the same terms, then `CCc1cc(C#Cc2ccc(CC(=O)O)cc2)ccc1C1(OC(C)C)CC1` [Compound 98, {4-[4-(1-Isopropoxycyclopropyl)-3-ethyl-phenylethynyl]-phenyl}-acetic Acid], with 0.8 µM; and `COc1c(C(C)(C)C)cc(C#Cc2ccc(CC(=O)O)c(F)c2)cc1C(C)(C)C` [Compound 145, [4-(3,5-Di-tert-butyl-4-methoxy-phenylethynyl)-2-fluoro-phenyl]-acetic Acid], with 0.2 µM; and `CC1(C)CN(C2CC2)Cc2ccc(C#Cc3ccc(CC(=O)O)cc3)cc21` [Compound 24, [4-(2-Cyclopropyl-4,4-dimethyl-1,2,3,4-tetrahydro-isoquinoline-6-yl-ethynyl)-phenyl]-acetic Acid], with 3 µM.
On to `CC1(C)CC(C)(C)c2cc(C(=O)Oc3ccc(CC(=O)O)cc3)ccc2O1` [Compound 46, 1,2,2,4,4-Tetramethyl-chroman-6-carboxylic Acid 4-(carboxymethyl)phenyl Ester], for which the IC50 on P450RAI-1 was 2.2 µM.
Consider `CC1(C)CCC(n2ccnc2)c2ccc(C#Cc3ccc(C(=O)O)cc3)cc21` (stereo not shown) [Compound 139], for which the IC50 on P450RAI-1 worked out at 0.05 µM.
Consider `CC1(C)CC2(CC2)Oc2c(C3CC3)cc(C(=O)Oc3cccc(CC(=O)O)c3)cc21` [Compound 60, Spiro[2H-1-benzopyran-2,1′-cyclopropane]-6-carboxylic Acid, 8-cyclopropyl-3,4-dihydro-4,4-dimethyl-, 3-(carboxymethyl)phenyl Ester], for which, on P450RAI-1, the IC50 turned out to be 1.6 µM.
For the molecule `CC1(C)CC2(CC2)Oc2c(C3CC3)cc(C#Cc3ccc(C(=O)O)c(F)c3)cc21` [Compound 54, 4-[(8-Cyclopropyl-3,4-dihydro-4,4-dimethylspiro[2H-1-benzopyran-2,1′-cyclopropane]-6-yl)ethynyl]-2-fluoro-benzoic Acid], on P450RAI-1, the IC50 was found to be 0.022 µM.
For the molecule `CC1(C)CC2(CC2)Oc2c(C3CC3)cc(C#Cc3ccc(C(=O)O)cc3)cc21` [Compound 52, Benzoic Acid, 4-[(8-cyclopropyl-3,4-dihydro-4,4-dimethylspiro[2H-1-benzopyran-2,1′-cyclopropane]-6-yl)ethynyl]-], the IC50 on P450RAI-1 is 0.05 µM.
On the same count and under the same terms, then `CCc1cc(C#Cc2ccc(CC(=O)O)cc2)cc2c1OC(C)(C)CC2(C)C` [Compound 56, [4-(8-Ethyl-2,2,4,4-tetramethyl-chroman-6-yl-ethynyl)phenyl]acetic Acid], with 0.13 µM; and `CC1(C)CCN(C2CC2)c2ccc(C#Cc3ccc(C(=O)O)cc3)cc21` [Compound 62, 4-(1-Cyclopropyl-4,4-dimethyl-1,2,3,4-tetrahydroquinolin-6-yl-ethynyl)-benzoic Acid], with above 10 µM; and `COc1c(C(C)(C)C)cc(C#Cc2ccc(CC(=O)O)cc2)cc1C(C)(C)C` [Compound 143, [4-(3,5-Di-tert-butyl-4-methoxy-phenylethynyl)-phenyl]-acetic Acid], with 0.8 µM.
For the molecule `O=C(O)c1ccc(C#Cc2ccc(C3(N(Cc4ccccc4)Cc4ccccc4)CC3)cc2)cc1` [Compound 114, 4-[4-(1-Dibenzylamino-cyclopropyl)-phenylethynyl]-benzoic Acid], the IC50 on P450RAI-1 was above 10 µM. The Kd on RARα and at RARγ was above 10 µM throughout.
Consider `Cc1cc(C#Cc2ccc(CC(=O)O)cc2)ccc1Cn1ccnc1` [Compound 121, [4-(4-Imidazol-1-yl-methyl-3-methyl-phenylethynyl)-phenyl]-acetic Acid], for which the Kd at RARα was above 10 µM; on RARγ, above 100 µM.

Broadly, the IC50 is the midpoint of a concentration-inhibition curve. The Kd is the free concentration of one partner at which half of the binding sites on the other are occupied at equilibrium, for simple one-to-one binding.
